Patent publication US9399635B2, “Pyrazole derivative” (GREEN TECH CO., LTD., priority 2011, dated 2016)

Question: For `COc1ccc(/C=C/c2cc(/C=C/c3ccc4cc[nH]c4c3)[nH]n2)c(OC)c1` [Example 54, 3-[(1E)-2-(2,4-dimethoxyphenyl)ethenyl]-5-[(1E)-2-(1H-indol-6-yl)ethenyl]-1H-pyrazole], which melting point is on record?
Answer: Its melting point is 121 to 133 °C.

Question: Which melting point does the source give for `CC(=O)Nc1ccc(/C=C/c2cc(/C=C/c3ccc4cc[nH]c4c3)[nH]n2)cc1` [Example 55, 3-[(1E)-2-[4-(acetylamino)phenyl]ethenyl]-5-[(1E)-2-(1H-indol-6-yl)ethenyl]-1H-pyrazole] here?
Answer: The melting point was greater than 300 °C.

Question: With `C(=C\c1cc(/C=C/c2ccc3cc[nH]c3c2)[nH]n1)/c1ccc(Oc2ccccc2)cc1` [Example 56, 3-[(1E)-2-(1H-indol-6-yl)ethenyl]-5-[(1E)-2-(4-phenoxyphenyl)ethenyl]-1H-pyrazole] as the compound, how does the melting point read?
Answer: The melting point was 175 to 182 °C.

Question: For `CS(=O)(=O)c1ccc(/C=C/c2cc(/C=C/c3ccc4cc[nH]c4c3)[nH]n2)cc1` [Example 57, 3-[(1E)-2-(1H-indol-6-yl)ethenyl]-5-[(1E)-2-[4-(methanesulfonyl)phenyl]ethenyl]-1H-pyrazole], which melting point is on record?
Answer: The melting point was 260 to 268 °C.

Question: With `C(=C\c1cc(/C=C/c2ccccc2-c2cccnc2)n[nH]1)/c1ccc2cc[nH]c2c1` [Example 59, 3-[(1E)-2-(1H-indol-6-yl)ethenyl]-5-[(1E)-2-[2-(3-pyridyl)phenyl]ethenyl]-1H-pyrazole] as the compound, how does the melting point read?
Answer: Its melting point is 248 to 255 °C.

Question: With `COc1cc(Br)c(/C=C/c2cc(/C=C/c3ccc4cc[nH]c4c3)[nH]n2)cc1O` [Example 60, 3-[(1E)-2-(2-bromo-5-hydroxy-4-methoxyphenyl)ethenyl]-5-[(1E)-2-(1H-indol-6-yl)ethenyl]-1H-pyrazole] as the compound, how does the melting point read?
Answer: Its melting point is 137 to 142 °C.

Question: Which melting point does the source give for `C(=C\c1cc(/C=C/c2ccc3cc[nH]c3c2)[nH]n1)/c1ccc(-c2ccccc2)cc1` [Example 61, 3-[(1E)-2-(1H-indol-6-yl)ethenyl]-5-[(1E)-2-(4-phenylphenyl)ethenyl]-1H-pyrazole] here?
Answer: The melting point was 273 to 276 °C.

Question: Which melting point does the source give for `CN1CCN(c2ccc(/C=C/c3cc(/C=C/c4ccc5cc[nH]c5c4)[nH]n3)c(Br)c2)CC1` [Example 62, 3-[(1E)-2-[2-bromo-4-(4-methylpiperazin-1-yl)phenyl]ethenyl]-5-[(1E)-2-(1H-indol-6-yl)ethenyl]-1H-pyrazole] here?
Answer: The melting point was 120 to 124 °C.

Question: For `COc1cc(OC(c2ccccc2)c2ccccc2)ccc1/C=C/c1cc(/C=C/c2ccc3cc[nH]c3c2)[nH]n1` [Example 64, 3-[(1E)-2-[4-(diphenylmethoxy)-2-methoxyphenyl]ethenyl]-5-[(1E)-2-(1H-indol-6-yl)ethenyl]-1H-pyrazole], which melting point is on record?
Answer: Its melting point is 114 to 119 °C.

Question: For `COc1cc(OC(C)C)ccc1/C=C/c1cc(/C=C/c2ccc3cc[nH]c3c2)[nH]n1` [Example 65, 3-[(1E)-2-(1H-indol-6-yl)ethenyl]-5-[(1E)-2-(4-isopropoxy-2-methoxyphenyl)ethenyl]-1H-pyrazole], which melting point is on record?
Answer: The melting point was 107 to 113 °C.

Question: Which melting point does the source give for `COCCOc1ccc(/C=C/c2cc(/C=C/c3ccc4cc[nH]c4c3)[nH]n2)c(OC)c1` [Example 66, 3-[(1E)-2-(1H-indol-6-yl)ethenyl]-5-[(1E)-2-[2-methoxy-4-(2-methoxyethoxy)phenyl]ethenyl]-1H-pyrazole] here?
Answer: The melting point was 90 to 96 °C.

Question: Which melting point does the source give for `COc1ccc(Br)c(/C=C/c2cc(/C=C/c3ccc4cc[nH]c4c3)[nH]n2)c1` [Example 67, 3-[(1E)-2-(2-bromo-5-methoxyphenyl)ethenyl]-5-[(1E)-2-(1H-indol-6-yl)ethenyl]-1H-pyrazole] here?
Answer: The melting point was 103 to 109 °C.

Question: Which melting point does the source give for `COc1ccc(COc2ccc(/C=C/c3cc(/C=C/c4ccc5cc[nH]c5c4)[nH]n3)c(OC)c2)cc1` [Example 68, 3-[(1E)-2-(1H-indol-6-yl)ethenyl]-5-[(1E)-2-[2-methoxy-4-(4-methoxybenzyloxy)phenyl]ethenyl]-1H-pyrazole] here?
Answer: The melting point was 211 to 214 °C.

Question: Which melting point does the source give for `COc1cc(OCc2ccccn2)ccc1/C=C/c1cc(/C=C/c2cccc3ncccc23)[nH]n1` [Example 69, 3-[(1E)-2-(quinolin-5-yl)ethenyl]-5-[(1E)-2-[2-methoxy-4-(2-pyridylmethoxy)phenyl]ethenyl]-1H-pyrazole] here?
Answer: Its melting point is 107 to 120 °C.

Question: For `COc1cc(OCc2ccccn2)ccc1/C=C/c1cc(/C=C/c2ccc3ccn(Cc4ccccc4)c3c2)[nH]n1` [Example 70, 3-[(1E)-2-(1-benzyl-1H-indol-6-yl)ethenyl]-5-[(1E)-2-[2-methoxy-4-(2-pyridylmethoxy)phenyl]ethenyl]-1H-pyrazole], which melting point is on record?
Answer: The melting point was 89 to 93 °C.

Question: With `Brc1cc(N2CCOCC2)ccc1/C=C/c1cc(/C=C/c2ccc3cc[nH]c3c2)[nH]n1` [Example 71, 3-[(1E)-2-[2-bromo-4-(morpholin-4-yl)phenyl]ethenyl]-5-[(1E)-2-(1H-indol-6-yl)ethenyl]-1H-pyrazole] as the compound, how does the melting point read?
Answer: The melting point was 143 to 148 °C.

Question: Which melting point does the source give for `COc1cc(OCc2ccccn2)ccc1/C=C/c1cc(/C=C/c2ccc3ccn(C(C)=O)c3c2)[nH]n1` [Example 73, 3-[(1E)-2-(1-acetyl-1H-indol-6-yl)ethenyl]-5-[(1E)-2-[2-methoxy-4-(2-pyridylmethoxy)phenyl]ethenyl]-1H-pyrazole] here?
Answer: Its melting point is 182 to 187 °C.

Question: For `COc1cc(OCc2ccccn2)ccc1/C=C/c1cc(/C=C/c2ccc3ccn(S(C)(=O)=O)c3c2)[nH]n1` [Example 74, 3-[(1E)-2-(1-methanesulfonyl-1H-indol-6-yl)ethenyl]-5-[(1E)-2-[2-methoxy-4-(2-pyridylmethoxy)phenyl]ethenyl]-1H-pyrazole], which melting point is on record?
Answer: Its melting point is 212 to 214 °C.

Question: Which melting point does the source give for `COc1cc(OCc2ccccn2)ccc1/C=C/c1cc(/C=C/c2c[nH]c3ncccc23)[nH]n1` [Example 75, 3-[(1E)-2-(7-aza-1H-indol-3-yl)ethenyl]-5-[(1E)-2-[2-methoxy-4-(2-pyridylmethoxy)phenyl]ethenyl]-1H-pyrazole] here?
Answer: The melting point was 219 to 223 °C.

Question: With `COc1cc(OCCN(C)C)ccc1/C=C/c1cc(/C=C/c2ccc3cc[nH]c3c2)[nH]n1` [Example 76, 3-[(1E)-2-[4-[2-(dimethylamino)ethoxy]-2-methoxyphenyl]ethenyl]-5-[(1E)-2-(1H-indol-6-yl)ethenyl]-1H-pyrazole] as the compound, how does the melting point read?
Answer: The melting point was 109 to 112 °C.

Question: With `CC(C)c1ccc(/C=C/c2cc(/C=C/c3ccc4cc[nH]c4c3)[nH]n2)cc1` [Example 78, 3-[(1E)-2-(1H-indol-6-yl)ethenyl]-5-[(1E)-2-(4-isopropylphenyl)ethenyl]-1H-pyrazole] as the compound, how does the melting point read?
Answer: Its melting point is 208 to 212 °C.

Question: Which melting point does the source give for `COc1cc(OCC2CCCCC2)ccc1/C=C/c1cc(/C=C/c2ccc3cc[nH]c3c2)[nH]n1` [Example 80, 3-[(1E)-2-[4-(cyclohexylmethoxy)-2-methoxyphenyl]ethenyl]-5-[(1E)-2-(1H-indol-6-yl)ethenyl]-1H-pyrazole] here?
Answer: Its melting point is 104 to 108 °C.

Question: For `COc1cc(OCCn2cccc2)ccc1/C=C/c1cc(/C=C/c2ccc3cc[nH]c3c2)[nH]n1` [Example 81, 3-[(1E)-2-(1H-indol-6-yl)ethenyl]-5-[(1E)-2-[2-methoxy-4-[2-(pyrrol-1-yl)ethoxy]phenyl]ethenyl]-1H-pyrazole], which melting point is on record?
Answer: Its melting point is 102 to 110 °C.

Question: With `CCN(CC)c1ccc(/C=C/c2cc(/C=C/c3ccc4cc[nH]c4c3)[nH]n2)c(OCCN2CCCCC2)c1` [Example 97, 3-[(1E)-2-[4-diethylamino-2-[2-(1-piperidyl)ethoxy]phenyl]ethenyl]-5-[(1E)-2-(1H-indol-6-yl)ethenyl]-1H-pyrazole] as the compound, how does the melting point read?
Answer: Its melting point is 102 to 104 °C.
